# Measurements: PubChem BioAssay (NCI)
#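 How tested: cells in 96-well plates exposed to compound for 48 hours at five concentrations. Abbreviation: GI50, concentration required for 50% inhibition of growth. TGI: total growth inhibition.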
# Experiments:
# Assay in all cases: inhibition of tumour cell growth, NCI panel, 48 h
# [1] = tested on: 786-0 renal
# [2] = tested on: A498 renal
# [3] = tested on: A549 NSCLC
# [4] = tested on: ACHN renal
# [5] = tested on: BT-549 breast
# [6] = tested on: CAKI-1 renal
# [7] = tested on: CCRF-CEM leukemia
# [8] = tested on: COLO 205 colon
# [9] = tested on: DU-145 prostate
# [10] = tested on: EKVX NSCLC
# [11] = tested on: HCC-2998 colon
# [12] = tested on: HCT-116 colon
# [13] = tested on: HCT-15 colon
# [14] = tested on: HL-60(TB) leukemia
# [15] = tested on: HOP-62 NSCLC
# [16] = tested on: HOP-92 NSCLC
# [17] = tested on: HS 578T breast
# [18] = tested on: HT29 colon
# [19] = tested on: IGROV1 ovarian
# [20] = tested on: K-562 leukemia
# [21] = tested on: KM12 colon
# [22] = tested on: LOX IMVI melanoma
# [23] = tested on: M14 melanoma
# [24] = tested on: MALME-3M melanoma
# [25] = tested on: MCF7 breast
# [26] = tested on: MDA-MB-231 breast
# [27] = tested on: MDA-MB-435
# [28] = tested on: NCI-H226 lung
# [29] = tested on: NCI-H23 lung
# [30] = tested on: NCI-H460 lung
# [31] = tested on: NCI-H522 lung
# [32] = tested on: NCI/ADR-RES ovarian
# [33] = tested on: OVCAR-3 ovarian
# [34] = tested on: OVCAR-5 ovarian
# [35] = tested on: OVCAR-8 ovarian
# [36] = tested on: PC-3 prostate
# [37] = tested on: RPMI-8226 leukemia
# [38] = tested on: RXF 393 renal
# [39] = tested on: SF-268 CNS
# [40] = tested on: SF-295 CNS
# [41] = tested on: SF-539 CNS
# [42] = tested on: SK-MEL-2 melanoma
# [43] = tested on: SK-MEL-28 melanoma
# [44] = tested on: SK-MEL-5 melanoma
# [45] = tested on: SK-OV-3 ovarian
# [46] = tested on: SN12C renal
# [47] = tested on: SNB-19 CNS
# [48] = tested on: SW-620 colon
# [49] = tested on: T-47D breast
# [50] = tested on: TK-10 renal
# [51] = tested on: U251 CNS
# [52] = tested on: UACC-257 melanoma
# [53] = tested on: UACC-62 melanoma
# [54] = tested on: UO-31 renal
# [55] = tested on: MOLT-4 leukemia
# [56] = tested on: OVCAR-4 ovarian
# [57] = tested on: SNB-75 CNS
smiles,measurement,setting,value
CCOC(=O)c1cc2c(c3ccsc13)C1(C)CCC3c4ccc(OC)cc4CCC3C1C2 (centres undefined),GI50,[1],> 100 µM
same,TGI,[1],> 100 µM
same,GI50,[2],> 100 µM
same,TGI,[2],> 100 µM
same,GI50,[3],> 100 µM
same,TGI,[3],> 100 µM
same,GI50,[4],> 100 µM
same,TGI,[4],> 100 µM
same,GI50,[5],> 100 µM
same,TGI,[5],> 100 µM
same,GI50,[6],> 100 µM
same,TGI,[6],> 100 µM
same,GI50,[7],> 100 µM
same,TGI,[7],> 100 µM
same,GI50,[8],> 100 µM
same,TGI,[8],> 100 µM
same,GI50,[9],> 100 µM
same,TGI,[9],> 100 µM
same,GI50,[10],> 100 µM
same,TGI,[10],> 100 µM
same,GI50,[11],> 100 µM
same,TGI,[11],> 100 µM
same,GI50,[12],> 100 µM
same,TGI,[12],> 100 µM
same,GI50,[13],> 100 µM
same,TGI,[13],> 100 µM
same,GI50,[14],> 100 µM
same,TGI,[14],> 100 µM
same,GI50,[15],> 100 µM
same,TGI,[15],> 100 µM
same,GI50,[16],> 100 µM
same,TGI,[16],> 100 µM
same,GI50,[17],> 100 µM
same,TGI,[17],> 100 µM
same,GI50,[18],60.3 µM
same,TGI,[18],> 100 µM
same,GI50,[19],> 100 µM
same,TGI,[19],> 100 µM
same,GI50,[20],> 100 µM
same,TGI,[20],> 100 µM
same,GI50,[21],> 100 µM
same,TGI,[21],> 100 µM
same,GI50,[22],> 100 µM
same,TGI,[22],> 100 µM
same,GI50,[23],> 100 µM
same,TGI,[23],> 100 µM
same,GI50,[24],> 100 µM
same,TGI,[24],> 100 µM
same,GI50,[25],> 100 µM
same,TGI,[25],> 100 µM
same,GI50,[26],> 100 µM
same,TGI,[26],> 100 µM
same,GI50,[27],> 100 µM
same,TGI,[27],> 100 µM
same,GI50,[28],> 100 µM
same,TGI,[28],> 100 µM
same,GI50,[29],> 100 µM
same,TGI,[29],> 100 µM
same,GI50,[30],> 100 µM
same,TGI,[30],> 100 µM
same,GI50,[31],> 100 µM
same,TGI,[31],> 100 µM
same,GI50,[32],> 100 µM
same,TGI,[32],> 100 µM
same,GI50,[33],> 100 µM
same,TGI,[33],> 100 µM
same,GI50,[34],> 100 µM
same,TGI,[34],> 100 µM
same,GI50,[35],> 100 µM
same,TGI,[35],> 100 µM
same,GI50,[36],> 100 µM
same,TGI,[36],> 100 µM
same,GI50,[37],> 100 µM
same,TGI,[37],> 100 µM
same,GI50,[38],> 100 µM
same,TGI,[38],> 100 µM
same,GI50,[39],> 100 µM
same,TGI,[39],> 100 µM
same,GI50,[40],> 100 µM
same,TGI,[40],> 100 µM
same,GI50,[41],> 100 µM
same,TGI,[41],> 100 µM
same,GI50,[42],> 100 µM
same,TGI,[42],> 100 µM
same,GI50,[43],> 100 µM
same,TGI,[43],> 100 µM
same,GI50,[44],> 100 µM
same,TGI,[44],> 100 µM
same,GI50,[45],36 µM
same,TGI,[45],> 100 µM
same,GI50,[46],> 100 µM
same,TGI,[46],> 100 µM
same,GI50,[47],> 100 µM
same,TGI,[47],> 100 µM
same,GI50,[48],> 100 µM
same,TGI,[48],> 100 µM
same,GI50,[49],> 100 µM
same,TGI,[49],> 100 µM
same,GI50,[50],> 100 µM
same,TGI,[50],> 100 µM
same,GI50,[51],> 100 µM
same,TGI,[51],> 100 µM
same,GI50,[52],> 100 µM
same,TGI,[52],> 100 µM
same,GI50,[53],> 100 µM
same,TGI,[53],> 100 µM
same,GI50,[54],> 100 µM
same,TGI,[54],> 100 µM
C[C@@H]1CCC[C@]2(C)O[C@H]2CC[C@@](C)(O)[C@@H]2CC3=C(CO)C(=O)O[C@H]3[C@H]1O2,TGI,[1],> 50 µM
same,TGI,[2],> 50 µM
same,TGI,[3],> 50 µM
same,TGI,[4],> 50 µM
same,TGI,[5],> 50 µM
same,TGI,[6],> 50 µM
same,TGI,[7],> 50 µM
same,TGI,[8],> 50 µM
same,TGI,[9],> 50 µM
same,TGI,[10],> 50 µM
same,TGI,[11],> 50 µM
same,TGI,[12],> 50 µM
same,TGI,[13],> 50 µM
same,TGI,[14],> 5 µM
same,TGI,[15],> 50 µM
same,TGI,[16],> 50 µM
same,TGI,[17],> 50 µM
same,TGI,[18],> 50 µM
same,TGI,[19],> 50 µM
same,TGI,[20],> 50 µM
same,TGI,[21],> 50 µM
same,TGI,[22],> 50 µM
same,TGI,[23],> 50 µM
same,TGI,[25],> 50 µM
same,TGI,[26],> 50 µM
same,TGI,[27],> 50 µM
same,TGI,[55],> 50 µM
same,TGI,[28],> 50 µM
same,TGI,[29],> 50 µM
same,TGI,[30],> 50 µM
same,TGI,[31],> 50 µM
same,TGI,[32],> 50 µM
same,TGI,[33],> 50 µM
same,TGI,[56],> 50 µM
same,TGI,[34],> 50 µM
same,TGI,[35],> 50 µM
same,TGI,[36],> 50 µM
same,TGI,[37],> 50 µM
same,TGI,[38],> 50 µM
same,TGI,[39],> 50 µM
same,TGI,[40],> 50 µM
same,TGI,[41],> 50 µM
same,TGI,[42],> 50 µM
same,TGI,[43],> 50 µM
same,TGI,[44],> 50 µM
same,TGI,[45],> 50 µM
same,TGI,[46],> 50 µM
same,TGI,[47],> 50 µM
same,TGI,[57],> 50 µM
same,TGI,[48],> 50 µM
same,TGI,[49],> 50 µM
same,TGI,[50],> 50 µM
same,TGI,[51],> 50 µM
same,TGI,[52],> 50 µM
same,TGI,[53],> 50 µM
same,TGI,[54],> 50 µM
Cc1cccc(C)c1NC(=O)/C(Cc1nc2ccc([N+](=O)[O-])cc2[nH]c1=O)=N\NC(N)=O,TGI,[1],> 100 µM
same,TGI,[2],> 100 µM
same,TGI,[3],> 100 µM
same,TGI,[4],> 100 µM
same,TGI,[5],> 100 µM
same,TGI,[6],> 100 µM
same,TGI,[7],> 100 µM
same,TGI,[8],> 100 µM
same,TGI,[9],> 100 µM
same,TGI,[10],> 100 µM
same,TGI,[11],> 100 µM
same,TGI,[12],> 100 µM
same,TGI,[13],> 100 µM
same,TGI,[14],> 100 µM
same,TGI,[16],> 100 µM
same,TGI,[17],> 100 µM
same,TGI,[18],> 100 µM
same,TGI,[19],> 100 µM
same,TGI,[20],> 100 µM
same,TGI,[21],> 100 µM
same,TGI,[22],> 100 µM
same,TGI,[23],> 100 µM
same,TGI,[24],> 100 µM
same,TGI,[25],> 100 µM
same,TGI,[26],> 100 µM
same,TGI,[27],> 100 µM
same,TGI,[55],> 100 µM
same,TGI,[28],> 100 µM
same,TGI,[29],> 100 µM
same,TGI,[30],> 100 µM
same,TGI,[31],> 100 µM
same,TGI,[32],> 100 µM
same,TGI,[33],> 100 µM
same,TGI,[56],> 100 µM
same,TGI,[34],> 100 µM
same,TGI,[35],> 100 µM
same,TGI,[36],> 100 µM
same,TGI,[37],> 100 µM
same,TGI,[39],> 100 µM
same,TGI,[40],> 100 µM
same,TGI,[41],> 100 µM
same,TGI,[42],> 100 µM
same,TGI,[43],> 100 µM
same,TGI,[44],> 100 µM
same,TGI,[45],> 100 µM
same,TGI,[46],> 100 µM
same,TGI,[47],> 100 µM
same,TGI,[57],> 100 µM
same,TGI,[48],> 100 µM
same,TGI,[49],> 100 µM
same,TGI,[50],> 100 µM
same,TGI,[51],> 100 µM
same,TGI,[52],> 100 µM
same,TGI,[53],> 100 µM
same,TGI,[54],> 100 µM
